# Calls of active or inactive are those of the source. The calls are words filed in the database; no cut-off is given here. Peptide text beside a SMILES is read from it.
# Experiments:
# Disks large homolog 4 [1] = target: T1, Disks large homolog 4 (Homo sapiens, UniProt P78352); test: Inhibition of PSD-95 PDZ2 domain-GluN2B interaction expressed in COS7 cells transfected with pGFP2-PDZ2 and pRluc-N2B at 500 uM by BRET assay; type: cell-based; details: COS-7
# Target sequence in this assay (P78352 whole entry, looked up, the tested form may be a part): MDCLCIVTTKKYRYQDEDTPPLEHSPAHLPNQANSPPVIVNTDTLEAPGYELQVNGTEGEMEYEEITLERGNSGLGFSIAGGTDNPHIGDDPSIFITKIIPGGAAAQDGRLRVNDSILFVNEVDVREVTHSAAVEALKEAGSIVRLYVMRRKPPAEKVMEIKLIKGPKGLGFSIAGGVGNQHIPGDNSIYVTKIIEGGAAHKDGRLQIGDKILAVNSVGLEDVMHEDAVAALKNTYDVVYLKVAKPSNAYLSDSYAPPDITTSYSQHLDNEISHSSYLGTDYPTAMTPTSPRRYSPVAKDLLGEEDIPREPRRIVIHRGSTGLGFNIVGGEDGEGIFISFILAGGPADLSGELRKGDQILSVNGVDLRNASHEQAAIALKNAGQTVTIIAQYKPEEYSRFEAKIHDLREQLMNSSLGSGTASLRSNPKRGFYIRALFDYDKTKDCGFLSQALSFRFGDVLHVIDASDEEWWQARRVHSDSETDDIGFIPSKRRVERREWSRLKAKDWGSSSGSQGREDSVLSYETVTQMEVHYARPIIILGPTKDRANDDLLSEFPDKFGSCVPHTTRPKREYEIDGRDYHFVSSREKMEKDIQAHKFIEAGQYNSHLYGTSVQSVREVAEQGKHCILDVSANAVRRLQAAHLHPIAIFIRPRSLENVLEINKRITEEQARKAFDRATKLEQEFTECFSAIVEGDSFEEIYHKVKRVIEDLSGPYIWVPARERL
# Disks large homolog 4 [2] = target: T1, Disks large homolog 4; test: Inhibition of PSD-95 PDZ2 domain by competitive fluorescence polarization assay
# Target sequence in this assay (P78352 whole entry, the tested form may be a part): as the sequence (P78352 whole entry, looked up, the tested form may be a part) above
# Disks large homolog 4 [3] = target: T1, Disks large homolog 4; test: Inhibition of PSD-95 PDZ3 domain by competitive fluorescence polarization assay
# Target sequence in this assay (P78352 whole entry, the tested form may be a part): as the sequence (P78352 whole entry, looked up, the tested form may be a part) above
# Disks large homolog 4 [4] = target: T1, Disks large homolog 4; test: Inhibition of PSD-95 PDZ2 domain-GluN2B interaction expressed in COS7 cells transfected with pGFP2-PDZ2 and pRluc-N2B at 50 to 1000 uM by BRET assay; type: cell-based; details: COS-7
# Target sequence in this assay (P78352 whole entry, looked up, the tested form may be a part): as above
# Disks large homolog 4 [5] = target: T1, Disks large homolog 4; test: Inhibition of PSD-95 PDZ2 domain-GluN2B interaction expressed in COS7 cells transfected with pGFP2-PDZ2 and pRluc-N2B at 100 uM by BRET assay; type: cell-based; details: COS-7
# Target sequence in this assay (P78352 whole entry, looked up, the tested form may be a part): as above
# [6] = Stability in human plasma assessed as half life by ESI-LC/MS; type: ADME, cell-free
Compound,inhibition (Disks large homolog 4 [1]),Ki (Disks large homolog 4 [2]),Ki (Disks large homolog 4 [3]; read-out: Ki),also measured
CC(C)[C@H](NC(=O)[C@H](CC(=O)O)NC(=O)[C@@H](NC(=O)[C@@H](N)CCC(=O)O)[C@@H](C)O)C(=O)O (H-ETDV-OH),inactive,,,
CC(C)[C@H](NC(=O)[C@H](C)NC(=O)[C@@H](NC(=O)[C@H](CCC(=O)O)NCC1CCCCCC1)[C@@H](C)O)C(=O)O,,1.4 µM,16 µM,
C[C@H](NC(=O)[C@H](C)NC(=O)[C@H](C)NC(=O)[C@H](CCC(=O)O)NCCCc1ccc(Cl)c(Cl)c1)C(=O)O,,,,inhibition (Disks large homolog 4 [4]): inactive
H-RRRRRRRRKLSSIESDV-OH,,,,inhibition (Disks large homolog 4 [5]): Active
CC(C)[C@H](NC(=O)[C@H](C)NC(=O)[C@@H](NC(=O)[C@@H](N)CCC(N)=O)[C@@H](C)O)C(=O)O (H-QTAV-OH),,110 µM,> 400 µM,
CN[C@@H](CCC(=O)O)C(=O)N[C@H](C(=S)N[C@@H](C)C(=O)N[C@H](C(=O)O)C(C)C)[C@@H](C)O,,220 µM,,half-life [6]: 9 h
CC(C)[C@H](NC(=O)[C@H](C)NC(=O)[C@@H](NC(=O)[C@H](CCC(=O)O)NCC1CC2CCC1C2)[C@@H](C)O)C(=O)O (some centres undefined),,1.3 µM,20 µM,
CC(C)[C@H](NC(=O)[C@H](CC(=O)O)NC(=O)[C@@H](NC(=O)[C@H](C)N)[C@@H](C)O)C(=O)O (H-ATDV-OH),,,,Ki (Disks large homolog 4 [3]): Not Active
CC(C)[C@H](NC(=O)[C@H](C)NC(=O)[C@@H](NC(=O)[C@H](C)N)[C@@H](C)O)C(=O)O (H-ATAV-OH),inactive,,> 400 µM,
CC(C)[C@H](NC(=O)[C@H](CC(=O)O)NC(=O)[C@@H](NC(=O)[C@H](CCC(=O)O)NCCc1ccc(Cl)c(Cl)c1)[C@@H](C)O)C(=O)O,inactive,1.2 µM,130 µM,
CC(C)[C@H](NC(=O)[C@H](CC(=O)O)NC(=O)[C@@H](NC(=O)[C@@H](N)CCC(N)=O)[C@@H](C)O)C(=O)O,,,,Ki (Disks large homolog 4 [3]): Not Active
CC(C)[C@H](NC(=O)[C@H](C)NC(=O)[C@@H](NC(=O)[C@@H](N)CCC(=O)O)[C@@H](C)O)C(=O)O,inactive,,,
CC(C)[C@H](NC(=O)[C@H](C)NC(=O)[C@@H](NC(=O)[C@H](CCC(=O)O)NCCc1ccc(F)c(F)c1F)[C@@H](C)O)C(=O)O,,1.8 µM,8.8 µM,
CC(C)[C@H](NC(=S)[C@H](C)NC(=O)[C@@H](NC(=O)[C@H](CCC(=O)O)NCCc1ccc(Cl)c(Cl)c1)[C@@H](C)O)C(=O)O,Active,1 µM,8.3 µM,inhibition (Disks large homolog 4 [4]): Dose-dependent effect; half-life [6]: > 117 h
CC(C)[C@H](NC(=O)[C@H](C)NC(=O)[C@@H](NC(=O)[C@H](CCC(=O)O)NCCc1ccc2ccc3cccc4ccc1c2c34)[C@@H](C)O)C(=O)O,,16 µM,51 µM,
CC(C)[C@H](NC(=O)[C@H](C)NC(=O)[C@@H](NC(=O)[C@H](CCC(=O)O)NCCc1ccc2ccccc2c1)[C@@H](C)O)C(=O)O,Active,,,inhibition (Disks large homolog 4 [4]): Dose-dependent effect; half-life [6]: 1.53 h
CC(C)[C@H](NC(=O)[C@H](C)NC(=O)[C@@H](NC(=O)[C@H](CCC(=O)O)NCCC1CC2CCC1C2)[C@@H](C)O)C(=O)O (some centres undefined),,1.5 µM,14 µM,
CC(C)[C@H](NC(=O)[C@H](CC(=O)O)NC(=O)[C@@H](NC(=O)[C@H](CCC(N)=O)NCCC1CCCCC1)[C@@H](C)O)C(=O)O,,,,Ki (Disks large homolog 4 [3]): Not Active
CN[C@@H](CCC(=O)O)C(=O)N[C@H](C(=O)N[C@@H](C)C(=O)N[C@H](C(=O)O)C(C)C)[C@@H](C)O,,9.65 µM,,half-life [6]: 1.88 h

# Continued, in another order:
inhibition (Disks large homolog 4 [1]),Ki (Disks large homolog 4 [2]),Ki (Disks large homolog 4 [3]; read-out: Ki),Compound,also measured
,9 µM,95 µM,CC(C)[C@H](NC(=O)[C@H](C)NC(=O)[C@@H](NC(=O)[C@H](CCC(=O)O)NCCCc1c2ccccc2cc2ccccc12)[C@@H](C)O)C(=O)O,
,32 µM,,CN[C@@H](CCC(=O)O)C(=S)N[C@H](C(=O)N[C@@H](C)C(=O)N[C@H](C(=O)O)C(C)C)[C@@H](C)O,half-life [6]: > 91.7 h
,2.1 µM,6.7 µM,CC(C)[C@H](NC(=O)[C@H](C)NC(=O)[C@@H](NC(=O)[C@H](CCC(=O)O)NCC12CC3CC(CC(C3)C1)C2)[C@@H](C)O)C(=O)O,
inactive,1.8 µM,210 µM,CC(C)[C@H](NC(=O)[C@H](CC(=O)O)NC(=O)[C@@H](NC(=O)[C@H](CCC(=O)O)NCCc1ccc2ccccc2c1)[C@@H](C)O)C(=O)O,
,56 µM,280 µM,CC(C)[C@H](NC(=O)[C@H](C)NC(=O)[C@@H](NC(=O)[C@H](C)NCCc1ccc2ccccc2c1)[C@@H](C)O)C(=O)O,
inactive,,,CC(C)[C@H](NC(=O)[C@H](CC(=O)O)NC(=O)[C@@H](NC(=O)[C@H](CCC(=O)O)NCCC1CCCCC1)[C@@H](C)O)C(=O)O,Ki (Disks large homolog 4 [3]): Not Active
,4.2 µM,44 µM,CC(C)[C@H](NC(=O)[C@H](C)NC(=O)[C@@H](NC(=O)[C@H](CCC(=O)O)NCCCc1ccc(F)c(F)c1F)[C@@H](C)O)C(=O)O,
,13 µM,64 µM,CC(C)[C@H](NC(=O)[C@H](C)NC(=O)[C@@H](NC(=O)[C@H](C)NCCc1ccc(Cl)c(Cl)c1)[C@@H](C)O)C(=O)O,
,5 µM,53 µM,CC(C)[C@H](NC(=O)[C@H](C)NC(=O)[C@@H](NC(=O)[C@H](CCC(=O)O)NCCCc1ccc2ccccc2c1)[C@@H](C)O)C(=O)O,
Active,,,CC(C)[C@H](NC(=O)[C@H](C)NC(=O)[C@@H](NC(=O)[C@H](CCC(=O)O)NCCc1ccc(Cl)c(Cl)c1)[C@@H](C)O)C(=O)O,inhibition (Disks large homolog 4 [4]): Dose-dependent effect; half-life [6]: 1.38 h
Active,0.63 µM,,CC(C)[C@H](NC(=O)[C@H](C)NC(=O)[C@@H](NC(=O)[C@H](CCC(=O)O)NCCC1CCCCC1)[C@@H](C)O)C(=O)O,inhibition (Disks large homolog 4 [4]): Dose-dependent effect; half-life [6]: 0.483 h
,10.8 µM,,CN[C@@H](CCC(=O)O)C(=O)N[C@H](C(=O)N[C@@H](C)C(=S)N[C@H](C(=O)O)C(C)C)[C@@H](C)O,half-life [6]: > 91.7 h
,1.2 µM,9.4 µM,CC(C)[C@H](NC(=O)[C@H](C)NC(=O)[C@@H](NC(=O)[C@H](CCC(=O)O)NCCC1CCCCCC1)[C@@H](C)O)C(=O)O,
,,> 400 µM,CC(C)[C@H](NC(=O)[C@H](CC(=O)O)NC(=O)[C@@H](NC(=O)[C@H](C)NCCC1CCCCC1)[C@@H](C)O)C(=O)O,
Active,0.63 µM,11 µM,CC(C)[C@H](NC(=S)[C@H](C)NC(=O)[C@@H](NC(=O)[C@H](CCC(=O)O)NCCC1CCCCC1)[C@@H](C)O)C(=O)O,inhibition (Disks large homolog 4 [4]): Active; half-life [6]: > 117 h
Active,1.1 µM,11 µM,CC(C)[C@H](NC(=S)[C@H](C)NC(=O)[C@@H](NC(=O)[C@H](CCC(=O)O)NCCc1ccc2ccccc2c1)[C@@H](C)O)C(=O)O,inhibition (Disks large homolog 4 [4]): Dose-dependent effect; half-life [6]: > 117 h
,33 µM,76 µM,CC(C)[C@H](NC(=O)[C@H](C)NC(=O)[C@@H](NC(=O)[C@H](CCC(=O)O)NCCCCc1ccc2ccc3cccc4ccc1c2c34)[C@@H](C)O)C(=O)O,
